Assay results published in patent publication US20250152488A1, “SKIN BRIGHTENING COMPOSITION” (Conopco, Inc., d/b/a UNILEVER, priority 2022, published 2025).

Each compound was assayed on Human primary melanocytes (assay: Melanin synthesis on melanocyte cells in vitro (melanin content assay)). Details: 72 hrs treatment with actives in MGM media at the stated wt %; absorbance 405 nm.
Type: cell-based
Experimental: Experiments were carried out on melanocyte cells using the actives as shown in Table-3 using the procedure given below; • 1. Human primary melanocytes were seeded at a density of 5×10^4 per well into a 24 well plate with fresh melanocyte growth media (MGM). • 2. Post 24 hrs seeding, cells were treated with actives in fresh MGM media and incubated for 72 hrs at 5% CO2/37° C. incubator. • 3. After 72 h of incubation, melanin estimation was done. Melanin content estimation: Cell culture spent media was removed and cells were washed once with 200 μl of 1×PBS. […] Then 100 μl of this lysate was transferred to a fresh 384 well plate and absorbance was measured spectrophotometric at 405 nm with a micro plate reader.

Structure (SMILES) | Melanin synthesis (% of control)
NC(=O)c1cccnc1 [E, niacinamide] | 97 % of control
CCCCCCC(O)CCCCCCCCCCC(=O)O (stereo not drawn) [F, 12-hydroxystearic acid] | 98 % of control
CC(O)CN(CCN(CC(C)O)CC(C)O)CC(C)O (stereo not drawn) [D, tetrahydroxypropyl ethylenediamine] | 91 % of control
